Results published in publication PMC8779255, “Determining the Anticancer Activity of Sphingosine Kinase Inhibitors Containing Heteroatoms in Their Tail Structure” (Pharmaceutics, 2022).

How the values were obtained:
[1] = tested on: sphingosine in HCT116 cells; assay: Sphingosine ELISA of cell lysate; assay type: cell-based, human; settings: 24 h, vs nontreated control
Experimental: (§1) The cellular levels of S1P, sphingosine, and ceramide were detected using an ELISA assay kit (MyBioSource, Inc., San Diego, CA, USA) according to the manufacturer’s instruction. For S1P ELISA, 100 µL cell lysates or standards were added in pre-coated ELISA wells, incubated for 90 min at 37 °C, and treated with 1x biotinylated anti S1P antibody for 1 h. Following treatment of HRP conjugated secondary antibody, the substrate was added and allowed to change the color for 15 min; then, the stop solution was added and absorbance was measured at 450 nm using a Multiskan GO (Thermo Scientific, Waltham, MA, USA) microplate spectrophotometer. […] A stop solution (50 µL) was added to each well, and optical density was measured at 450 nm using a microplate reader. […] After incubation, 50 µL substrate A and B was added to the plate and incubated at 37 °C for 20 min; a stop solution (50 µL) was added to each well and optical density was determined at 450 nm using a microplate reader. The concentration of S1P, sphingosine, and ceramide were calculated as ng/mL using respective standard curves constructed by Skanlt microplate reader software 5.0 (Thermo Scientific, Waltham, MA, USA).

CYP3A4 = target: T1, CYP3A4 (Homo sapiens, UniProt P08684); assay: Inhibition of CYP enzymes activity, human liver microsomes; assay type: in vitro ADME; settings: human liver microsomes 0.25 mg/mL, 10 μM, midazolam substrate
T1 construct: Human liver microsomes (0.25 mg/mL); from tissue; host or cells: human liver microsomes
Experimental: (§5) By simultaneously analyzing metabolites, the ability of the six compounds to inhibit drug metabolism enzymes was evaluated.
(§6) Metabolites of each CYP coenzyme indicator drug generated through the above reaction were analyzed using the Shimadzu Nexera XR system and TSQ vantage (Thermo). The HPLC column was a Kinetex C18 column (2.1 × 100 mm^2, 2.6 μm particle size; Phenomenex, Torrance, CA, USA), and the mobile phase was distilled water (A) containing 0.1% formic acid and acetonitrile (B) containing 0.1% formic acid. […] The generated metabolites were quantified using MRM (Multiple Reaction Monitoring) quantification modes, and data were analyzed using Xcalibur (version 1.6.1).

HT29 cells [2] = assay: Clonogenic (colony formation) assay; assay type: cell-based, human; settings: HT29, 5, 10 and 20 μM
Experimental: (§2) Cell proliferation was assayed by in vitro clonogenic assay. To perform the clonogenic assay, HT29 and HCT116 cells (1000 cells/well) were grown in 6-well plates for 24 h. Cells were treated with compound 10 and FTY720 in different concentrations for 12 h and changed fresh medium. Colonies were allowed to grow for two weeks by changing to a fresh medium every 3 days. Colonies were stained with 0.1% crystal violet prepared in 25% […] for 30 min and washed with running water and photographed with Canon Rebel T6i (Tokyo, Kanto, Japan). Colonies were counted using Image J software version 1.53i, National Institutes of Health, Bethesda, MD, USA). Plating efficiency (PE) and surviving fraction (SF) was calculated using the following formula. (1) [Plating efficiency (PE)]=Number of colony count in control/Number of cell seeded [Surviving Fraction]=Number of colony count /Number of cell seeded […]

HCT116 cells [3] = assay: Clonogenic (colony formation) assay; assay type: cell-based, human; settings: HCT116, 5, 10 and 20 μM
Experimental: as §2

[4] = In vitro metabolic stability in liver microsomes; assay type: in vitro ADME, mouse
S1P in HCT116 cells = assay: S1P ELISA of cell lysate; assay type: cell-based, human
Experimental: as §1

SK1 enzyme = target: T2, SK1 enzyme (Homo sapiens, UniProt Q9NYA1); assay: SK activity assay (Adapta screening system); assay type: biochemical; settings: final concentration of 20 μM
T2 construct: purchased Thermo Fisher Scientific
Experimental: The effect of compounds in sphingosine kinase activity was examined using the […] screening system (Thermo Fisher Scientific System, Waltham, MA, USA). The kinase inhibition ability of compounds 1-11 along with RB005 was measured with final concentration of 20 μM. […] The data were presented as percentage inhibition of SK enzyme by individual compounds.

HT29 cells [5] = assay: Annexin V-FITC/PI staining, flow cytometry; assay type: cell-based, human; settings: HT29, 10 and/or 20 µM, 24 h
Experimental: (§3) After treating HT29 and HCT116 cells with compounds 10, 11, 13 and FTY720 according to the manufacturer’s instruction, the annexin V and PI staining technique was employed to determine apoptosis in the cells. Briefly, cells (2.5 × 10^5 cells/well) were seeded in 12-well plates and treated with 10 and/or 20 µM of compounds for 24 h. Cells were collected using trypsin-EDTA and stained with annexin V-FITC dye for 15 min at room temperature, followed by PI staining for 20 min and analyzed by flow cytometer (MACSQuant Analyzer 10; Miltenyi Biotec, Bergisch Gladbach, Germany). The data was analyzed using MACSQuantify^TM version 2.8 software (Miltenyi Biotec, Bergisch Gladbach, Germany) and presented as early apoptosis, late apoptosis, or combined apoptosis percentage. Each experiment was repeated three times independently (n = 6).

HCT116 cells [6] = assay: Annexin V-FITC/PI staining, flow cytometry; assay type: cell-based, human; settings: HCT116, 10 and/or 20 µM, 24 h
Experimental: as §3

CYP2C19 = CYP2C19 (Homo sapiens, UniProt P33261); assay: Inhibition of CYP enzymes activity, human liver microsomes; settings: human liver microsomes 0.25 mg/mL, 10 μM, S-mephenytoin substrate
Experimental: as §5, §6

[7] = In vitro metabolic stability in liver microsomes; assay type: in vitro ADME, rat
HT29 cells [8] = assay: Mitochondrial outer membrane potential (MOMP) by JC-10 staining; assay type: cell-based, human; settings: HT29, 10 and 20 µM, 24 h, vs nontreated control
Experimental: (§4) To access the mechanism of cell death, mitochondrial outer membrane potential (MOMP) was measured using JC-10 cationic dye. HT29 and HCT116 cells (2.5 × 10^5 cells/well) were seeded in 12-well plates and treated with a test compound for 24 h, collected in 1.5 mL microtubes using trypsin-EDTA, washed with 1× cold PBS, and stained with JC-10 dye prepared in HBSS solution (0.14 M NaCl, 0.005 M KCl, 0.001 M CaCl2, 0.005 M MgSO4. 7H2O, 0.0004 M […], 0.0003 M Na2HPO4-2H2O, 0.0004 M KH2PO4, 0.006 M D-glucose, 0.004 M NaHCO3, 0.002 M HEPES, and 0.02% Pluronic® F-127) for 30 min. Samples were analyzed using MACSQuanta Analyzer 10. Cells with green and red fluorescence were plotted in a dot plot; the ratio of red to green fluorescence was calculated using MACSQuantify^TM version 2.8 software and presented as MOMP of the cells. The experiment was repeated three times (n = 6).

HCT116 cells [9] = assay: as above; assay type: cell-based, human; settings: HCT116, 10 and 20 µM, 24 h, vs nontreated control
Experimental: as §4

[10] = % remaining after 30 min, NADPH

T1 sequence (P08684 whole entry): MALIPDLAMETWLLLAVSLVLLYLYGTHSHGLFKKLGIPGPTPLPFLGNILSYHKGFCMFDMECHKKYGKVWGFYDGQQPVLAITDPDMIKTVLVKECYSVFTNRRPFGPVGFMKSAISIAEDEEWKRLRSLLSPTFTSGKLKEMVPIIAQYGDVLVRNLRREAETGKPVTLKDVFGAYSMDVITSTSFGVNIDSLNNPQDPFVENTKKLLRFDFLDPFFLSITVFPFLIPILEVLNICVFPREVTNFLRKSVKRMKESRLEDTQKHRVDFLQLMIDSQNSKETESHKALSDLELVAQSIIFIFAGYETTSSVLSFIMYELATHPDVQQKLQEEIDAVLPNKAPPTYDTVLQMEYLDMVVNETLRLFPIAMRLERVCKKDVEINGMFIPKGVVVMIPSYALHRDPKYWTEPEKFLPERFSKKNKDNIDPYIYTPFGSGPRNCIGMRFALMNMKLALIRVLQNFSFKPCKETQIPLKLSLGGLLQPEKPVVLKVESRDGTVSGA
Sequence of CYP2C19 (P33261 whole entry): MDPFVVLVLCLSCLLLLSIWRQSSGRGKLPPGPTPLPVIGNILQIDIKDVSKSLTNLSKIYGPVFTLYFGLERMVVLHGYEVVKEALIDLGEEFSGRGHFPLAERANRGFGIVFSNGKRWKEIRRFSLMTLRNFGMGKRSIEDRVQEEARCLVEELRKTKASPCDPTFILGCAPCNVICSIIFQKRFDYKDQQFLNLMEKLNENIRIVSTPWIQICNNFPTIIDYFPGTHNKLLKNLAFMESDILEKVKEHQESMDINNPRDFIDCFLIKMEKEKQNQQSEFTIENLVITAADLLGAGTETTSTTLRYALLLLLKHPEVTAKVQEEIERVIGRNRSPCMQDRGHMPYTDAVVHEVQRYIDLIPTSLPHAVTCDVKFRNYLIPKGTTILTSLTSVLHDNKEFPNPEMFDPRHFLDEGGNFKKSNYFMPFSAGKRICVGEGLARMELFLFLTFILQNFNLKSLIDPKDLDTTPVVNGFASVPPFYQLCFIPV
T2 sequence (Q9NYA1 whole entry): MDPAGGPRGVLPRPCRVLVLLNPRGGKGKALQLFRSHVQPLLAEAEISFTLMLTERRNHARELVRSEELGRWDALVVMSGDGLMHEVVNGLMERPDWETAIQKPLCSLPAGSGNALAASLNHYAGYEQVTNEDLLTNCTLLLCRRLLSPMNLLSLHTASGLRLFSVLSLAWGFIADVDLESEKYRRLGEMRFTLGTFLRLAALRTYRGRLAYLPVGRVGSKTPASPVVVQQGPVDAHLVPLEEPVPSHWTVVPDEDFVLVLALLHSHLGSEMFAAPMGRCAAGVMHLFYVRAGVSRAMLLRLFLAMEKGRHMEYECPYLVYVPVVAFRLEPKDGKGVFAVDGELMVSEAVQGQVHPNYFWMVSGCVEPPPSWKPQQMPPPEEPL

CYP3A4 activity (% of control activity) (CYP3A4): >100% | liver microsomal stability, Mouse (%) [4, 10]: 44.7% | liver microsomal stability (in words) ([4]; mouse): unstable | inhibition at 20 µM (SK1 enzyme): 20% | CYP2C19 activity (% of control activity) (CYP2C19): 96.5% | liver microsomal stability, Rat (%) [7, 10]: 10.2% | liver microsomal stability (in words) ([7]; rat): unstable
SMILES: CCCCCCCOc1ccc(CCN2CCN(CCO)CC2)cc1 [Compound 10, 2-(4-(4-(Heptyloxy)phenethyl)piperazin-1-yl)ethanol]
sphingosine level increase ([1]; HCT116, 10 µM): 1.42 fold | sphingosine level increase ([1]; HCT116, 20 µM): 1.74 fold | colony formation capacity (HT29 cells [2]): effectively inhibits the colony formation capacity | colony formation capacity (HCT116 cells [3]): effectively inhibits the colony formation capacity | S1P level decrease (S1P in HCT116 cells): 42% | S1P level (S1P in HCT116 cells; HCT116, 10 and 20 µM, 24 h, vs nontreated control): significantly reduces | apoptosis (annexin V assay) (HT29 cells [5]): induced apoptosis | apoptosis (annexin V assay) (HCT116 cells [6]): induced apoptosis | JC-10 dye red to green fluorescence ratio (MOMP) (HT29 cells [8]): significantly reduced | JC-10 dye red to green fluorescence ratio (MOMP) (HCT116 cells [9]): significantly reduced
